Laboratory results as given in ChEMBL document CHEMBL1201862, “PubChem BioAssay data set” (2004).
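Where inhibition never reached the appropriate level, the endpoint shown equals the highest concentration tested. Otherwise, values were interpolated linearly from a five-concentration, 48-hour dose response in 96-well plates. GI50 is the concentration that inhibits growth by half.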 Activity calls are given as the source filed them. Rule as the data show it: active = GI50 up to about 1.1 µM and inactive = higher.

How the values were obtained:
Assay in all cases: NCI tumour cell line growth inhibition, 48 h
A549 = test system: A549
CAKI-1 = test system: CAKI-1
DU-145 = test system: DU-145
HCC 2998 = test system: HCC 2998
HCT-116 = test system: HCT-116
HCT-15 = test system: HCT-15
HOP-92 = test system: HOP-92
Hs-578T = test system: Hs-578T
KM12 = test system: KM12
NCI-H460 = test system: NCI-H460
NCI/ADR-RES = test system: NCI/ADR-RES
OVCAR-4 = test system: OVCAR-4
OVCAR-8 = test system: OVCAR-8
PC-3 = test system: PC-3
RPMI-8226 = test system: RPMI-8226
SF-539 = test system: SF-539
SN12C = test system: SN12C
TK-10 = test system: TK-10
UACC-62 = test system: UACC-62
K562 = test system: K562

Compound	GI50 (A549)	GI50 (CAKI-1)	GI50 (DU-145)	GI50 (HCC 2998)	GI50 (HCT-116)	GI50 (HCT-15)	GI50 (HOP-92)	GI50 (Hs-578T)	GI50 (KM12)	GI50 (NCI-H460)	GI50 (NCI/ADR-RES)	GI50 (OVCAR-4)	GI50 (OVCAR-8)	GI50 (PC-3)	GI50 (RPMI-8226)	GI50 (SF-539)	GI50 (SN12C)	GI50 (TK-10)	GI50 (UACC-62)	GI50 (K562)
CC(C)=NOC(=O)Nc1cccc2c1OCO2	> 100 µM (inactive)	> 100 µM (inactive)	> 100 µM (inactive)	> 100 µM (inactive)	> 100 µM (inactive)	> 100 µM	> 100 µM (inactive)	28.8 µM (inactive)	71.1 µM (inactive)	> 100 µM (inactive)	> 100 µM (inactive)	> 100 µM (inactive)	> 100 µM (inactive)	> 100 µM (inactive)	> 100 µM (inactive)	> 100 µM (inactive)	> 100 µM (inactive)	> 100 µM (inactive)	32.5 µM (inactive)	
CC(C)C(=O)Oc1cc2c(=O)oc3c(OC(=O)C(C)C)c(OC(=O)C(C)C)cc4c(=O)oc(c1OC(=O)C(C)C)c2c34	> 100 µM (inactive)	> 100 µM (inactive)	> 100 µM (inactive)	> 100 µM (inactive)	> 100 µM (inactive)	> 100 µM	> 100 µM (inactive)	> 100 µM (inactive)	> 100 µM (inactive)	> 100 µM (inactive)	> 100 µM (inactive)	> 100 µM (inactive)	> 100 µM (inactive)	> 100 µM (inactive)	> 100 µM (inactive)	> 100 µM (inactive)	> 100 µM (inactive)	> 100 µM (inactive)	> 100 µM (inactive)	> 100 µM (inactive)
CNC(=O)Nc1ccccc1	> 100 µM (inactive)	> 100 µM (inactive)	> 100 µM (inactive)	> 100 µM (inactive)	> 100 µM (inactive)	> 100 µM	> 100 µM (inactive)	> 100 µM (inactive)	> 100 µM (inactive)	> 100 µM (inactive)	> 100 µM (inactive)	> 100 µM (inactive)	> 100 µM (inactive)	> 100 µM (inactive)	> 100 µM (inactive)	> 100 µM (inactive)	> 100 µM (inactive)	> 100 µM (inactive)	> 100 µM (inactive)	> 100 µM (inactive)
Cc1cccc(/C=N/NC(=S)NCCc2ccccn2)n1	36.6 µM (inactive)	26.7 µM (inactive)	22.3 µM (inactive)	42.2 µM (inactive)	31.8 µM (inactive)	26.5 µM	22.3 µM (inactive)	53.5 µM (inactive)	36.4 µM (inactive)	14.9 µM (inactive)	31.8 µM (inactive)	42.2 µM (inactive)	27.9 µM (inactive)	35.2 µM (inactive)	> 53.2 µM (inactive)	26.7 µM (inactive)	29.9 µM (inactive)	71.4 µM (inactive)	22.5 µM (inactive)	30.8 µM (inactive)
Cc1ccc(/C=C/C(=O)c2c([O-])on[n+]2-c2ccccc2)cc1	3.67 µM (inactive)	1.98 µM (inactive)	2.74 µM (inactive)	2.01 µM (inactive)	1.84 µM (inactive)	1.98 µM	4.52 µM (inactive)	2.47 µM (inactive)	2.39 µM (inactive)	2.44 µM (inactive)	2.4 µM (inactive)	3.1 µM (inactive)	1.85 µM (inactive)	4.72 µM (inactive)	2.57 µM (inactive)	3.28 µM (inactive)	3.79 µM (inactive)	2.95 µM (inactive)	1.72 µM (inactive)	3.68 µM (inactive)
O=c1[nH]c2cc(C(F)(F)F)ccc2nc1CBr	11 µM (inactive)	6.25 µM (inactive)	14.3 µM (inactive)	17.8 µM (inactive)	13.5 µM (inactive)	11.4 µM	2.79 µM (inactive)	22 µM (inactive)	14.9 µM (inactive)	13.9 µM (inactive)	17.4 µM (inactive)	15.7 µM (inactive)	10.4 µM (inactive)	13.1 µM (inactive)	5.97 µM (inactive)	8.41 µM (inactive)	9.31 µM (inactive)	13.9 µM (inactive)	9.51 µM (inactive)	5.73 µM (inactive)
O[C@H]1[C@H]2[C@H](O)C[C@H](CCOCc3ccccc3)CN2C[C@H]1O	> 100 µM (inactive)	> 100 µM (inactive)	> 100 µM (inactive)	> 100 µM (inactive)	> 100 µM (inactive)	> 100 µM	> 100 µM (inactive)	> 100 µM (inactive)	> 100 µM (inactive)	> 100 µM (inactive)	> 100 µM (inactive)	> 100 µM (inactive)	> 100 µM (inactive)	> 100 µM (inactive)	> 100 µM (inactive)	> 100 µM (inactive)	> 100 µM (inactive)		> 100 µM (inactive)	> 100 µM (inactive)
COc1cc(N(CCC#N)CCC#N)ccc1/C=C1\SC(=S)NC1=O	> 100 µM (inactive)	> 100 µM (inactive)	> 100 µM (inactive)	> 100 µM (inactive)	> 100 µM (inactive)	> 100 µM	> 100 µM (inactive)	> 100 µM (inactive)	> 100 µM (inactive)	> 100 µM (inactive)	> 100 µM (inactive)	> 100 µM (inactive)	> 100 µM (inactive)	> 100 µM (inactive)	> 100 µM (inactive)	> 100 µM (inactive)	> 100 µM (inactive)	> 100 µM (inactive)	> 100 µM (inactive)	> 100 µM (inactive)
COC(=O)[C@@H](Cc1ccccc1)N1O[C@]12CCCC[C@@H]2NC(=O)OC(C)(C)C (some centres undefined)	29.2 µM (inactive)	35.8 µM (inactive)	29.4 µM (inactive)	59.6 µM (inactive)	38.7 µM (inactive)	18.4 µM	21.3 µM (inactive)	21.6 µM (inactive)	48 µM (inactive)	25.5 µM (inactive)	23.1 µM (inactive)	31.6 µM (inactive)		25.6 µM (inactive)	44.5 µM (inactive)	19.2 µM (inactive)	32.3 µM (inactive)	25.1 µM (inactive)	23.2 µM (inactive)	40.1 µM (inactive)
N#CCN(Cc1ccccc1)[C@H]1CCC[C@]1(O)/C=C/c1ccc2c(c1)OCO2	38.4 µM (inactive)	36.1 µM (inactive)	62.1 µM (inactive)	18.4 µM (inactive)		22.2 µM	18.2 µM (inactive)	17.2 µM (inactive)	20 µM (inactive)	18.3 µM (inactive)	19.3 µM (inactive)	29 µM (inactive)	17.1 µM (inactive)	16.8 µM (inactive)	19.8 µM (inactive)	41.1 µM (inactive)		42.9 µM (inactive)	16.1 µM (inactive)	24.5 µM (inactive)
COc1ccc(/C=C2\N/C(=N\N=C/C(O)C(O)C(O)C(O)CO)NC2=O)cc1 (centres undefined)	> 100 µM (inactive)	> 100 µM (inactive)	30.4 µM (inactive)	11.6 µM (inactive)	53.6 µM (inactive)	> 100 µM	16.1 µM (inactive)	26.9 µM (inactive)	30 µM (inactive)	42.7 µM (inactive)	> 100 µM (inactive)	24 µM (inactive)	32.4 µM (inactive)	26.2 µM (inactive)	> 100 µM (inactive)	19.6 µM (inactive)	23.9 µM (inactive)	41.6 µM (inactive)		62.8 µM (inactive)
